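Results reflect a 48-hour exposure of cells in 96-well plates to compound at five concentrations. GI50 is the concentration that inhibits growth by half. TGI is the concentration that stops growth completely.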
How the values were obtained:
Experiment in all cases: DTP human tumour cell line panel, 48 h
[1] = tested on: UACC-257 melanoma
[2] = tested on: NCI-H226 lung
[3] = tested on: A498 renal
[4] = tested on: OVCAR-5 ovarian
[5] = tested on: NCI-H23 lung
[6] = tested on: T-47D breast
[7] = tested on: DU-145 prostate
[8] = tested on: SK-MEL-5 melanoma
[9] = tested on: EKVX NSCLC
[10] = tested on: SK-OV-3 ovarian
[11] = tested on: HS 578T breast
[12] = tested on: SNB-19 CNS
[13] = tested on: MALME-3M melanoma
[14] = tested on: CAKI-1 renal
[15] = tested on: UACC-62 melanoma
[16] = tested on: BT-549 breast
[17] = tested on: SK-MEL-28 melanoma
[18] = tested on: SW-620 colon
[19] = tested on: UO-31 renal
[20] = tested on: OVCAR-8 ovarian
[21] = tested on: SNB-75 CNS
[22] = tested on: OVCAR-3 ovarian
[23] = tested on: MCF7 breast
[24] = tested on: NCI/ADR-RES ovarian
[25] = tested on: NCI-H460 lung
[26] = tested on: HCT-15 colon
[27] = tested on: LOX IMVI melanoma
[28] = tested on: SF-295 CNS
[29] = tested on: ACHN renal
[30] = tested on: HCC-2998 colon
[31] = tested on: HT29 colon
[32] = tested on: K-562 leukemia
[33] = tested on: KM12 colon
[34] = tested on: SN12C renal
[35] = tested on: CCRF-CEM leukemia
[36] = tested on: HL-60(TB) leukemia
[37] = tested on: MDA-MB-435
[38] = tested on: OVCAR-4 ovarian
[39] = tested on: MOLT-4 leukemia
[40] = tested on: NCI-H522 lung
[41] = tested on: M14 melanoma
[42] = tested on: U251 CNS
[43] = tested on: A549 NSCLC
[44] = tested on: SF-539 CNS
[45] = tested on: 786-0 renal
[46] = tested on: HOP-92 NSCLC
[47] = tested on: SF-268 CNS
[48] = tested on: IGROV1 ovarian
[49] = tested on: HCT-116 colon
[50] = tested on: COLO 205 colon
[51] = tested on: MDA-MB-231 breast
[52] = tested on: SK-MEL-2 melanoma
[53] = tested on: TK-10 renal
[54] = tested on: PC-3 prostate
[55] = tested on: RPMI-8226 leukemia

CCCCCCCCCCCCCCCCCC1=NCCN1C(=O)OCCO
GI50 [1]: 2.28 µM
TGI [1]: 5.68 µM
GI50 [2]: 6.24 µM
TGI [2]: 45.2 µM
GI50 [3]: 9.29 µM
TGI [3]: 56.7 µM
GI50 [4]: 3.35 µM
TGI [4]: 26.4 µM
GI50 [5]: 5.64 µM
TGI [5]: > 100 µM
GI50 [6]: 2.89 µM
TGI [6]: 9.48 µM
GI50 [7]: 1.84 µM
TGI [7]: 3.37 µM
GI50 [8]: 2.93 µM
TGI [8]: 10.3 µM
GI50 [9]: 1.75 µM
TGI [9]: 4.24 µM
GI50 [10]: 2.5 µM
TGI [10]: 7.04 µM
GI50 [11]: 4.08 µM
TGI [11]: > 100 µM
GI50 [12]: 3.39 µM
TGI [12]: 12.9 µM
GI50 [13]: 12.9 µM
TGI [13]: 42.9 µM
GI50 [14]: 1.75 µM
TGI [14]: 3.83 µM
GI50 [15]: 1.87 µM
TGI [15]: 3.46 µM
GI50 [16]: 3.19 µM
TGI [16]: 18.3 µM
GI50 [17]: 5.92 µM
TGI [17]: 24.5 µM

OCCNc1ncnc2c1ncn2Cc1cccc(COc2cccc(OCc3cccc(Cn4cnc5c(NCCO)ncnc54)c3)c2)c1
GI50 [18]: 11.8 µM
TGI [18]: 24.9 µM
GI50 [1]: 18.4 µM
TGI [1]: 36.1 µM
GI50 [2]: 15.5 µM
TGI [2]: 33.3 µM
GI50 [3]: 14.9 µM
TGI [3]: 28.9 µM
GI50 [19]: 23.1 µM
TGI [19]: 56.6 µM
GI50 [20]: 18.5 µM
TGI [20]: 38.1 µM
GI50 [21]: 12.3 µM
TGI [21]: 27.4 µM
GI50 [4]: 20.2 µM
TGI [4]: 36.8 µM
GI50 [6]: 16 µM
TGI [6]: 33.4 µM
GI50 [22]: 17.6 µM
TGI [22]: 36.7 µM
GI50 [23]: 12.6 µM
TGI [23]: 26.1 µM
GI50 [7]: 16.7 µM
TGI [7]: 32.5 µM
GI50 [24]: > 100 µM
TGI [24]: > 100 µM
GI50 [25]: 15.1 µM
TGI [25]: 29 µM
GI50 [26]: 30.9 µM
TGI [26]: > 100 µM
GI50 [8]: 16.7 µM
TGI [8]: 31 µM
GI50 [27]: 14.5 µM
TGI [27]: 30.1 µM
GI50 [28]: 13 µM
TGI [28]: 31.8 µM
GI50 [29]: 20.7 µM
TGI [29]: 43.2 µM
GI50 [30]: 15.1 µM
TGI [30]: 33.6 µM
GI50 [9]: 14.3 µM
TGI [9]: 29 µM
GI50 [31]: 4.05 µM
TGI [31]: 16.5 µM
GI50 [32]: 8.01 µM
TGI [32]: 35.8 µM
GI50 [33]: 13.3 µM
TGI [33]: 38.8 µM
GI50 [34]: 17 µM
TGI [34]: 34.5 µM
GI50 [35]: 11.3 µM
TGI [35]: 33.1 µM
GI50 [10]: > 100 µM
TGI [10]: > 100 µM
GI50 [36]: 10.6 µM
TGI [36]: 29.3 µM
GI50 [37]: 14.9 µM
TGI [37]: 35.7 µM
GI50 [38]: 14.7 µM
TGI [38]: 34.2 µM
GI50 [11]: 11.8 µM
TGI [11]: 28.7 µM
GI50 [39]: 11.8 µM
TGI [39]: 32.4 µM
GI50 [40]: 12.5 µM
TGI [40]: 31.8 µM
GI50 [12]: 15.4 µM
TGI [12]: 30.4 µM
GI50 [41]: 17.2 µM
TGI [41]: 33.3 µM
GI50 [13]: 17.2 µM
TGI [13]: 38.3 µM
GI50 [42]: 12.3 µM
TGI [42]: 24.7 µM
GI50 [43]: 24.9 µM
TGI [43]: 50.7 µM
GI50 [44]: 11.5 µM
TGI [44]: 25.4 µM
GI50 [14]: 18.4 µM
TGI [14]: 42.1 µM
GI50 [45]: 15.5 µM
TGI [45]: 30.3 µM
GI50 [46]: 7.61 µM
TGI [46]: 23.6 µM
GI50 [47]: 16.4 µM
TGI [47]: 32.7 µM
GI50 [48]: 12.9 µM
TGI [48]: 37.4 µM
GI50 [49]: 10.2 µM
TGI [49]: 22.3 µM
GI50 [50]: 13.5 µM
TGI [50]: 32.2 µM
GI50 [51]: 14.5 µM
TGI [51]: 29.3 µM
GI50 [15]: 17 µM
TGI [15]: 33.8 µM
GI50 [52]: 16 µM
TGI [52]: 35.2 µM
GI50 [53]: 14.7 µM
TGI [53]: 29.9 µM
GI50 [16]: 11.9 µM
TGI [16]: 25.9 µM
GI50 [54]: 14.5 µM
TGI [54]: 30.4 µM
GI50 [55]: 6.47 µM
TGI [55]: 27.8 µM
GI50 [17]: 14.6 µM
TGI [17]: 28.4 µM

From PubChem BioAssay (NCI)
